Results on 28 compounds are retold here after patent publication US20240109881A1, “Heteroaryl Compounds as Ligand Directed Degraders of IRAK4” (Bristol-Myers Squibb Company, priority 2022, published 2024).

The target of test [1] is T1, IRAK4 (Homo sapiens, UniProt Q9NWZ3).
T1 construct: endogenous in cells; host or cells: THP-1 cells
T1 sequence (Q9NWZ3 1-460): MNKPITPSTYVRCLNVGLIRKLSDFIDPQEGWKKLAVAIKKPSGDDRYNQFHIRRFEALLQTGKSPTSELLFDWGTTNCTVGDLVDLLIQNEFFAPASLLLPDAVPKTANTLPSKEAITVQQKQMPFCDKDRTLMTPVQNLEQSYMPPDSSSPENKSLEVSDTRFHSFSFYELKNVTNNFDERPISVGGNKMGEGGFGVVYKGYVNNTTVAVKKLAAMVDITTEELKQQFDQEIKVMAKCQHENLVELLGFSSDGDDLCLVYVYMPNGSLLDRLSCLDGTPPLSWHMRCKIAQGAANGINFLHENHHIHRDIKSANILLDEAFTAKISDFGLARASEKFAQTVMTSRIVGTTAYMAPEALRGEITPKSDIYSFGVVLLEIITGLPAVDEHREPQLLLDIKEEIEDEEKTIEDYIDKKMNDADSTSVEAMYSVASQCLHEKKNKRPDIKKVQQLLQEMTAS
The experiment in a line: ALE THP1 HTRF (Advanced Lipoxidation End Product THP1 Homogeneous Time Resolved Fluorescence). Format: cell-based. As to conditions: THP1 cells. In a few lines: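 Cells lysed 45 min at room temperature; lysates normalized to total protein by BCA. Total IRAK4 detected by HTRF sandwich (anti-IRAK4-d2 plus anti-IRAK4-cryptate), incubated overnight in the dark at room temperature, read on a time-resolved fluorescence plate reader.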
For orientation: In TR-FRET formats the signal depends on donor and acceptor labels being close together.

The target in test [2] is T1, IRAK4. In words: LVL THP1 HTRF (THP1 Homogeneous Time Resolved Fluorescence). Format: cell-based. The conditions noted are these: THP1 cells, 18 h incubation with compound; for DC50: read-out: LVL THP1 HTRF EC50. A digest of the protocol:
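THP-1 cells in phenol red-free RPMI with 10% FBS were dosed with compound (20 nL in DMSO) for 18 h at 37° C. After 2 h lysis, IRAK4 was detected with anti-IRAK4-d2/anti-IRAK4-K HTRF antibodies for 18 h at room temperature and read at 665/615 nm; a parallel CTG plate was run.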

For the compound `C[C@H](C#N)Nc1cc(-n2ncc3cc(C#N)cnc32)ncc1-n1cc(C2CCC(CCN3CCN(c4ccc(C5CCC(=O)NC5=O)cc4)[C@@H](C)C3)CC2)nn1` (stereo in doubt) [P-156], on IRAK4 [1], the “ALE THP1 HTRF YMIN” value came to 10.1% and a half-maximal effect (EC50) was put at 1 nM. For the same compound, at IRAK4 [2], the “LVL THP1 HTRF YMIN” value came to 2.0% and the DC50 stood at 8 nM.
In the same order, the values of `C[C@H](C#N)Nc1cc(-c2ccc3cc(C#N)cnn23)ncc1C(=O)N[C@H]1CC[C@H](CCN2CCN(c3ccc(C4CCC(=O)NC4=O)cc3)CC2)CC1` (stereo partly drawn) [P-144] are 5.9%, 4 nM, 0.8% and 13 nM.
With `C[C@H](C#N)Nc1cc(-n2cc(F)c3cc(C#N)cnc32)ncc1C(=O)N[C@H]1CC[C@H](CCN2CCN(c3ccc(C4CCC(=O)NC4=O)cc3)CC2)CC1` (stereo partly drawn) [P-145], on IRAK4 [1], the “ALE THP1 HTRF YMIN” value stood at 11.0% and the EC50 – broadly, the concentration that produces a half-maximal response – was determined as 35 nM.
In the same order, the values of `C[C@H](C#N)Nc1cc(-n2ncc3cc(C#N)c(N)nc32)ncc1C(=O)N[C@H]1CC[C@H](CCN2CCC(c3ccc(C4CCC(=O)NC4=O)cc3)CC2)CC1` (stereo partly drawn) [P-146] are 8.0% and 1 nM.
In the same order, the values of `C[C@H](C#N)Nc1cc(-c2cnc3cc(C#N)cnn23)ncc1C(=O)N[C@H]1CC[C@H](CCN2CCN(c3ccc(C4CCC(=O)NC4=O)cc3)CC2)CC1` (stereo partly drawn) [P-147] are 9.0% and 19 nM.
In the same order, the values of `C[C@H](C#N)Nc1cc(-c2cnc3cc(C#N)cnn23)ncc1C(=O)N[C@H]1CC[C@H](CCN2CCC(c3ccc(C4CCC(=O)NC4=O)cc3)CC2)CC1` (stereo partly drawn) [P-148] are 11.0% and 16 nM.
Consider `C[C@H](C#N)Nc1cc(-n2ncc3cc(C#N)cnc32)ncc1C(=O)N[C@H]1CC[C@H](CCN2[C@@H](C)CN(c3ccc(C4CCC(=O)NC4=O)cc3)C[C@@H]2C)CC1` (stereo partly drawn) [P-149], for which, at IRAK4 [1], the “ALE THP1 HTRF YMIN” value turned out to be 7.1% and a half-maximal response (EC50) required 4 nM.
Consider `C[C@H](C#N)Nc1cc(-n2ncc3cc(C#N)cnc32)ncc1C(=O)N[C@H]1CC[C@H](CCN2CCN(c3ccc(C4CCC(=O)NC4=O)cc3)[C@H](C)C2)CC1` (stereo partly drawn) [P-150], for which, at IRAK4 [1], the “ALE THP1 HTRF YMIN” value stood at 6.2% and the EC50 amounted to 7 nM. Besides, at IRAK4 [2], the “LVL THP1 HTRF YMIN” value is on record as under 0.5% and the DC50 turned out to be 25 nM.
`C[C@H](C#N)Nc1cc(-n2ncc3cc(C#N)cnc32)ncc1C(=O)N[C@H]1CC[C@H](CCN2C[C@@H](C)N(c3ccc(C4CCC(=O)NC4=O)cc3)C[C@@H]2C)CC1` (stereo partly drawn) [P-151]: on IRAK4 [1], the “ALE THP1 HTRF YMIN” value is reported as 6.0% and a half-maximal effect (EC50) was put at 8 nM.
With `C[C@H](C#N)Nc1cc(-n2ncc3cc(C#N)cnc32)ncc1C(=O)N[C@H]1CC[C@H](CCN2CCN(c3ccc(C4CCC(=O)NC4=O)cn3)[C@H](C)C2)CC1` (stereo partly drawn) [P-152], on IRAK4 [1], the “ALE THP1 HTRF YMIN” value is 15.8% and the EC50 amounted to 20 nM.
`COc1cc(N2C[C@H](C)N(CC[C@H]3CC[C@H](NC(=O)c4cnc(-n5ncc6cc(C#N)cnc65)cc4N[C@H](C)C#N)CC3)[C@@H](C)C2)ccc1C1CCC(=O)NC1=O` (stereo partly drawn) [P-153]: on IRAK4 [1], the “ALE THP1 HTRF YMIN” value was 4.5% and the midpoint of the response, the EC50, lay at 17 nM.
In the same order, the values of `N#Cc1cnc2c(cnn2-c2cc(NC3CC3)c(-n3cc([C@H]4CC[C@H](CCN5CCN(c6ccc(C7CCC(=O)NC7=O)cc6)CC5)CC4)nn3)cn2)c1` (stereo partly drawn) [P-154] are 10.0% and 22 nM.
In the same order, the values of `CC1(Nc2cc(-n3ncc4cc(C#N)c(N)nc43)ncc2-n2cc([C@H]3CC[C@H](CCN4CCN(c5ccc(C6CCC(=O)NC6=O)cc5)CC4)CC3)nn2)CC1` (stereo partly drawn) [P-157] are 10.0% and 2 nM.
In the same order, the values of `C[C@H](C#N)Nc1cc(-n2ncc3cc(C#N)cnc32)ncc1C(=O)N[C@H]1CC[C@H](CCN2C[C@H](C)N(c3ccc(C4CCC(=O)NC4=O)cc3)C[C@@H]2C)CC1` (stereo partly drawn) [P-158] are 16.0% and 65 nM.
Consider `C[C@H](C#N)Nc1cc(-n2ncc3cnc(N)nc32)ncc1C(=O)N[C@H]1CC[C@H](CCN2CCN(c3ccc(C4CCC(=O)NC4=O)cc3)CC2)CC1` (stereo partly drawn) [P-159], for which, on IRAK4 [1], the “ALE THP1 HTRF YMIN” value was found to be 6.1% and it took 7 nM to reach a half-maximal effect (EC50). In addition, on IRAK4 [2], the “LVL THP1 HTRF YMIN” value is recorded as under 0.5% and the DC50 worked out at 18 nM.
In the same order, the values of `COc1cc(N2CCN(CC[C@H]3CC[C@H](NC(=O)c4cnc(-n5ncc6cc(C#N)c(N)nc65)cc4N[C@H](C)C#N)CC3)C[C@H]2C)ccc1C1CCC(=O)NC1=O` (stereo partly drawn) [P-161] are 6.6%, 6 nM, under 0.5% and 12 nM.
In the same order, the values of `N#Cc1cc2cnn(-c3cc(NC4CC4)c(-n4cc([C@H]5CC[C@H](CCN6CCN(c7ccc(C8CCC(=O)NC8=O)cc7)CC6)CC5)nn4)cn3)c2nc1N` (stereo partly drawn) [P-162] are 6.4%, 3 nM, 0.6% and 8 nM.
In the case of `C[C@H](C#N)Nc1cc(-n2ccc3cnc(N)nc32)ncc1C(=O)N[C@H]1CC[C@H](CCN2CCN(c3ccc(C4CCC(=O)NC4=O)cc3)CC2)CC1` (stereo partly drawn) [P-163], on IRAK4 [1], the “ALE THP1 HTRF YMIN” value turned out to be 8.4% and the response was half-maximal at 12 nM (EC50). Further, on IRAK4 [2], the “LVL THP1 HTRF YMIN” value was under 0.5% and the DC50 came to 26 nM.
In the same order, the values of `C[C@H](C#N)Nc1cc(-n2ncc3cc(C#N)cnc32)ncc1C(=O)N[C@H]1CC[C@H](CCN2CC3CCC(C2)N3c2ccc(C3CCC(=O)NC3=O)cc2)CC1` (stereo partly drawn) [P-164] are 64.0%, 136 nM, 16.8% and over 5000 nM.
As to `C[C@H](C#N)Nc1cc(-n2ncc3cc(C#N)c(N)nc32)ncc1C(=O)N[C@H]1CC[C@H](CCN2CCN(c3ccc(C4CCC(=O)NC4=O)cc3F)[C@H](C)C2)CC1` (stereo partly drawn) [P-165], at IRAK4 [1], the “ALE THP1 HTRF YMIN” value is 5.4% and a half-maximal response (EC50) required 2 nM. Besides, on IRAK4 [2], the “LVL THP1 HTRF YMIN” value was under 0.5% and the DC50 is 6 nM.
In the same order, the values of `C[C@H](C#N)Nc1cc(-n2ncc3cc(C#N)c(N)nc32)ncc1C(=O)N[C@H]1CC[C@H](CCN2CCN(c3ccc(C4CCC(=O)NC4=O)cn3)[C@H](C)C2)CC1` (stereo partly drawn) [P-166] are 8.1%, 8 nM, under 0.5% and 21 nM.
In the same order, the values of `COc1cc(C2CCC(=O)NC2=O)ccc1N1CCN(CC[C@H]2CC[C@H](NC(=O)c3cnc(-n4ncc5cc(C#N)c(N)nc54)cc3N[C@H](C)C#N)CC2)C[C@H]1C` (stereo partly drawn) [P-167] are 5.9%, 2 nM, under 0.5% and 5 nM.
In the same order, the values of `C[C@H](C#N)Nc1cc(-n2ncc3cc(C#N)c(N)nc32)ncc1C(=O)N[C@H]1CC[C@H](CCN2CCN(c3ccc(C4CCC(=O)NC4=O)cc3Cl)[C@H](C)C2)CC1` (stereo partly drawn) [P-168] are 5.5%, 6 nM, under 0.5% and 3 nM.
For `CS(=O)(=O)N1CCC(Nc2cc(-n3ncc4cc(C#N)cnc43)ncc2-n2cc([C@H]3CC[C@H](CCN4CCN(c5ccc(C6CCC(=O)NC6=O)cc5)CC4)CC3)nn2)CC1` (stereo partly drawn) [P-174], on IRAK4 [1], the “ALE THP1 HTRF YMIN” value stood at 31.2% and the EC50 was 201 nM. Further, on IRAK4 [2], the “LVL THP1 HTRF YMIN” value turned out to be 2.7% and the DC50 was 14 nM.
In the same order, the values of `C[C@H](C#N)Nc1cc(-n2ncc3cc(C#N)c(N)nc32)ncc1C(=O)N[C@H]1CC[C@H](CCN2CCN(c3ccc(C4CCC(=O)NC4=O)cc3)C(=O)C2)CC1` (stereo partly drawn) [P-177] are 6.7%, 4 nM, 6.4% and 32 nM.
As to `C[C@H](C#N)Nc1cc(-n2ncc3cc(C#N)c(N)nc32)ncc1C(=O)N[C@H]1CC[C@H](CCN2CCN(c3ccc(C4CCC(=O)NC4=O)cc3)[C@@H](C)C2)CC1` (stereo partly drawn) [P-178], on IRAK4 [1], the “ALE THP1 HTRF YMIN” value is recorded as 7.5% and the midpoint of the response, the EC50, lay at 12 nM. Also, on IRAK4 [2], the “LVL THP1 HTRF YMIN” value was 0.8% and the DC50 is 1 nM.
In the same order, the values of `C[C@H](C#N)Nc1cc(-n2ncc3cc(C#N)cnc32)ncc1C(=O)N[C@H]1CC[C@H](CCN2C[C@H]3C[C@@H](C2)N3c2ccc(C3CCC(=O)NC3=O)cc2)CC1` (stereo partly drawn) [P-180] are 7.5%, 6 nM, 18.9% and 702 nM.
As to `C[C@H](C#N)Nc1cc(-n2ncc3cc(C#N)c(N)nc32)ncc1C(=O)N[C@H]1CC[C@H](CCN2CCN(c3ccc(C4CCC(=O)NC4=O)cc3)C(C(F)(F)F)C2)CC1` (stereo partly drawn) [P-181], at IRAK4 [1], the “ALE THP1 HTRF YMIN” value was 27.7% and it took 168 nM to reach a half-maximal effect (EC50). At IRAK4 [2], the “LVL THP1 HTRF YMIN” value came out at 18.3% and the DC50 was determined as 112 nM.
